# In US8614054B2, “Laser scanning cytometry mediated analysis of therapeutic efficacy in tumors” (Board of Regents, The University of Texas System, priority 2000, dated 2013):
# Assays:
# tumor vasculature [1] = experiment: LSC-mediated blood vessel contouring (blood vessel density) in mouse tumors; format: in vivo; details: treated mouse tumor, Cy5 label; untreated mouse tumor 52%
# Description: (§1) Blood vessel density is defined herein as the number of blood vessels as determined from analyzing the fluorescence emission of markers bound to the endothelial cells divided by the total number of cells in the tumor as determined from analyzing the fluorescence emission of markers bound to the cell nuclei. Endothelial cell density is measured because it is a more sensitive marker. Breaks in fluorescence of the endothelial cell stain will delimitate individual blood vessels.
# After the scan is complete, the gates are set on the scattergram so that the collected data can be analyzed. Relocation of a cell is used to visualize which cells are positive, i.e. CD31 and/or TUNEL positive. […] The data file can be replayed to obtain the number of cells in each quadrant that are representative of the total percent of all cells counted. […] For BVD, the instruments software is set to contour on CD31 fluorescence. […] The instrument then scans the same area but counts the number of blood vessels, i.e. a single vessel is counted by contiguous fluorescent light. […] BVD can be calculated for that sample by dividing the blood vessel count by the total number of tumor endothelial cells. Endothelial cell density is determined by dividing the total number of endothelial cells by the total number of tumor cells. […]
# tumor endothelial cells [2] = experiment: LSC analysis of endothelial cell death (CD31/TUNEL double staining) in treated mouse tumors; format: in vivo; details: mouse liver metastasis model, treated vs untreated tumors
# Description: (§2) Tumor specimens or patient biopsies are obtained prior to and several time points post-treatment such as 1, 3, and 7 days or more. Tissue sections are stained using an immunofluorescent double-labeling technique which permits the simultaneous detection of endothelial cells and fluorescent markers of apoptosis such as TUNEL or caspase activity. The tissue sections are scanned by the LSC and cell data is collected by the instrument's software. For the first scan, the Wincyte software is setup by the user to contour on the cell nuclei based on propidium iodide staining. Contouring on the cell nuclei provides the total cell number of the tissue specimen and creates a ‘tissue map’ which permits selective gating of the tumor cells. In addition, contouring on the cell nuclei permits the software to identify endothelial cells (based on CD31 and/or CD34, Pharmingen, Inc., fluorescent staining) and/or TUNEL positive cells (based on fluorescent TUNEL, Promega, Inc.). […] A substantial increase in endothelial cell death post-treatment will indicate drug efficacy to induce apoptosis in tumor endothelial cells. Subsequent to endothelial cell death is the decay of the tumor vasculature. For the second scan, the Wincyte software is setup by the user to contour on the blood vessels of the tumor. The contouring is based on the fluorescence of the endothelial cell markers (CD31 and/or CD34). […]
# breast tumor cells = details: breast cancer patients, following neoadjuvant chemotherapy (FIG. 14)
# Description: FIGS. 14A-E—Biopsies taken from breast cancer patients pre and post-treatment (24, 48, 66 hours) following neoadjuvant chemotherapy were processed and stained for fluorescent TUNEL. The number of TUNEL positive cells were counted and results are represented as a percent of total cells counted. FIGS. 14F-H—Biopsies taken from breast cancer patients pre, 24, and 48 hours following neoadjuvant chemotherapy were processed and stained for fluorescent TUNEL. FIG. 14F—Representative image of tumor cell apoptosis in a human breast tumor biopsy pre- and post-chemotherapy (48 hrs.) before it is scanned by the LSC. […] FIG. 14G—Representative image of tumor cell apoptosis in a human breast tumor biopsy pre- and post-chemotherapy (48 hrs.) before it is scanned by the LSC. […] FIG. 14H—Bar graph showing the percent change in apoptotic tumor cells post-chemotherapy (24 & 48 hrs.).
# tumor vasculature [3] = experiment: LSC-mediated blood vessel contouring (blood vessel density) of patient biopsies pre and post-treatment with endostatin; format: in vivo, human
# Description: as §1
# After the scan is complete, the gates are set on the scattergram so that the collected data can be analyzed. Relocation of a cell is used to visualize which cells are positive, i.e. CD31 and/or TUNEL positive. Visualization allows the gate on the scattergram to be moved so that the positive cells fall in the appropriate quadrant. The data file can be replayed to obtain the number of cells in each quadrant that are representative of the total percent of all cells counted. […] For BVD, the instruments software is set to contour on CD31 fluorescence. In Examples 2-7, this is by selecting the long red filter during the setup. The instrument then scans the same area but counts the number of blood vessels, i.e. a single vessel is counted by contiguous fluorescent light. […] BVD can be calculated for that sample by dividing the blood vessel count by the total number of tumor endothelial cells. Endothelial cell density is determined by dividing the total number of endothelial cells by the total number of tumor cells.
# Tumor specimens or patient biopsies are obtained prior to and several time points post-treatment such as 1, 3, and 7 days or more. Tissue sections are stained using an immunofluorescent double-labeling technique which permits the simultaneous detection of endothelial cells and fluorescent markers of apoptosis such as TUNEL or caspase activity. The tissue sections are scanned by the LSC and cell data is collected by the instrument's software. […] The contouring is based on the fluorescence of the endothelial cell markers (CD31 and/or CD34). […]
# tumor endothelial cells [4] = experiment: LSC analysis of tumor endothelial cell death in patient biopsies pre and post-treatment with endostatin; format: in vivo, human
# Description: as §2
# tumor cells = experiment: LSC analysis of tumor cell death in patient biopsies pre and post-treatment with endostatin; format: in vivo, human; details: for change in tumor cell death: pre vs post-treatment
# Description: Tumor specimens or patient biopsies are obtained prior to and several time points post-treatment such as 1, 3, and 7 days or more. Tissue sections are stained using an immunofluorescent double-labeling technique which permits the simultaneous detection of endothelial cells and fluorescent markers of apoptosis such as TUNEL or caspase activity. The tissue sections are scanned by the LSC and cell data is collected by the instrument's software. For the first scan, the Wincyte software is setup by the user to contour on the cell nuclei based on propidium iodide staining. Contouring on the cell nuclei provides the total cell number of the tissue specimen and creates a ‘tissue map’ which permits selective gating of the tumor cells. In addition, contouring on the cell nuclei permits the software to identify endothelial cells (based on CD31 and/or CD34, Pharmingen, Inc., fluorescent staining) and/or TUNEL positive cells (based on fluorescent TUNEL, Promega, Inc.). […] A substantial increase in endothelial cell death post-treatment will indicate drug efficacy to induce apoptosis in tumor endothelial cells. Subsequent to endothelial cell death is the decay of the tumor vasculature. For the second scan, the Wincyte software is setup by the user to contour on the blood vessels of the tumor. The contouring is based on the fluorescence of the endothelial cell markers (CD31 and/or CD34). […] If the treatment targets the tumor vasculature, the number of blood vessels in the tumor will be dramatically lower post-treatment.
# Biopsies at different tumor sites were obtained from each of the five patients prior to and after treatment. The biopsies were stained with TUNEL and cy5 labeled antibody to CD31/[…]. […] FIGS. 8-9 represent LSC data from two of the patients. […] The data obtained from contouring on the blood vessels is shown in FIG. 12 where a representative image of blood vessel staining (CD31) is shown.
# This gives a difference of 0.23. The 95% CI for this difference is (0.00,0.47), p=0.050 and is significant.
# endothelial cells = experiment: LSC quantification of endothelial cell density (ED) in tumor biopsies; format: in vivo, human; details: following 56 days of treatment
# Description: FIGS. 17A-B—FIG. 17A Is a diagram showing the concept of quantifying endothelial cells in a tumor biopsy using the LSC. The LSC is used to count endothelial and tumor cells independently in a biopsy. Endothelial cell density (ED) is calculated by dividing the total number of endothelial cells by the total number of tumor cells. FIG. 17B Graph showing that Endostatin decreased ED 1.3 fold following 56 days of treatment.
# After the scan is complete, the gates are set on the scattergram so that the collected data can be analyzed. Relocation of a cell is used to visualize which cells are positive, i.e. CD31 and/or TUNEL positive. Visualization allows the gate on the scattergram to be moved so that the positive cells fall in the appropriate quadrant. The data file can be replayed to obtain the number of cells in each quadrant that are representative of the total percent of all cells counted. […] For BVD, the instruments software is set to contour on CD31 fluorescence. […] The instrument then scans the same area but counts the number of blood vessels, i.e. a single vessel is counted by contiguous fluorescent light. […] BVD can be calculated for that sample by dividing the blood vessel count by the total number of tumor endothelial cells. Endothelial cell density is determined by dividing the total number of endothelial cells by the total number of tumor cells.
compound,measurement,setting,value
Cc1[nH]c(/C=C2\C(=O)Nc3ccccc32)c(C)c1CCC(=O)O [SU6668],blood vessel density,tumor vasculature [1],55%
same,endothelial cell death,tumor endothelial cells [2],significant endothelial cell death
CC(=O)O[C@H]1C(=O)[C@@]2(C)[C@H]([C@H](OC(=O)c3ccccc3)[C@]3(O)C[C@H](OC(=O)[C@H](O)[C@@H](NC(=O)c4ccccc4)c4ccccc4)C(C)=C1C3(C)C)[C@]1(OC(C)=O)CO[C@@H]1C[C@@H]2O [taxol],number of apoptotic tumor cells,breast tumor cells,dramatic increase
endostatin,effect of dosing on blood vessel density,tumor vasculature [3]; <60 mg vs >60 mg,not significant
same,blood vessel density,"tumor vasculature [3]; Patient 1, treated for two months (FIG. 13)",dramatic decrease
same,BVD post-treatment,"tumor vasculature [3]; patient biopsy post-treatment with endostatin, pre-treatment BVD 53%",28%
same,effect of dosing on tumor endothelial cell death,tumor endothelial cells [4]; <60 mg vs >60 mg,not significant
same,apoptotic endothelial cells,"tumor endothelial cells [4]; patients treated for two months, pre vs post-treatment (FIG. 11)",two out of four patients had a dramatic increase
same,difference in change of tumor cell death between doses,"tumor cells; >60 mg vs <60 mg, 95% CI (0.00,0.47), p=0.050, significant",0.23
same,change in tumor cell death,tumor cells; dose of <60 mg,0.02
same,change in tumor cell death,tumor cells; dose of >60 mg,0.26
same,apoptotic tumor cells,"tumor cells; patients treated for two months, pre vs post-treatment (FIG. 10)",two out of four patients had a dramatic increase
same,decrease of endothelial cell density (ED),endothelial cells,1.3 fold
